Data from patent US20080300232A1, “N-Piperidine Derivatives as Ccr3 Modulators” (ASTRAZENECA AB, priority 2004, published 2008).

Experiments:
[1] = molecular target: T1, human Melanin concentrating hormone receptor 1 (MCH1r) (Homo sapiens, UniProt Q99705); test: MCH1 receptor radioligand binding (125I-MCH, CHO-K1 cell membranes); conditions: CHO-K1 membranes expressing human MCH1r, 30° C., 60 minutes, read-out: IC50 in human MCHr binding assay
T1 construct: expressed in transfected cells; host or cells: CHO-K1
Procedure: MCH1 Receptor Radioligand Binding.
Assays were performed on membranes prepared from CHO—K1 cells expressing the human Melanin concentrating hormone receptor 1 (MCH1r). Assays were performed in a 96-well plate format in a final reaction volume of 200 μl per well. Each well contained 6 μg of membrane proteins diluted in binding buffer (50 mM Tris, 3 mM MgCl2, 0.05% bovine serum albumin and the radioligand ^125I-MCH (IM344 Amersham) was added to give 10 000 cpm (counts per minute) per well. Each well contained 2 μl of the appropriate concentration of competitive antagonist prepared in DMSO and left to stand at 30° C. for 60 minutes. Non-specific binding was determined as that remaining following incubation with 1 μM MCH (Melanin concentrating hormone, H-1482 Bachem). The reaction was terminated by transfer of the reaction to GF/A filters using a Micro96 Harvester (Skatron Instruments, Norway). Filters were washed with assay buffer. Radioligand retained on the filters was quantified using al450 Microbeta TRILUX (Wallac, Finland).
Non-specific binding was subtracted from all values determined. Maximum binding was that determined in the absence of any competitor following subtraction of the value determined for non-specific binding. Binding of compounds at various concentrations was plotted according to the equation
and IC50 estimated where A is the bottom plateau of the curve i.e. the final minimum y value B is the top of the plateau of the curve i.e. the final maximum y value C is the x value at the middle of the curve. This represents the log EC50 value when A+B=100 D is the slope factor. x is the original known x values. y is the original known y values.

[2] = molecular target: T2, recombinant hMCHr (Homo sapiens, UniProt Q99705); test: MCH1 functional assay ([35S]GTPγS binding, membranes with recombinant hMCHr); format: biochemical; conditions: ED80 concentration of MCH, 45 min at 30° C., read-out: IC50 of antagonists in MCH1 functional assay
T2 construct: purchased Euroscreen
Procedure: Membranes expressing recombinant hMCHr (5.45 pmol/mg protein; Euroscreen) were prepared in assay buffer (50 mM HEPES, 100 mM NaCl, 5 mM MgCl2, 1 mM EDTA, 200 μM DTT, 20 μM GDP (Sigma) containing 0.1 μg/ml BSA, pH7.4) before assay. The assays were performed using membranes at 6 μg/well in an assay volume of 200 μl and the appropriate concentrations of compounds prepared in DMSO. The reaction was started by addition of 0.056 nM [^35S]GTPγS (Specific activity >1000 Ci/mmol; Amersham) and an ED80 concentration of MCH (determined for each membrane and each MCH batch). Non-specific binding was determined using 20 μM non-radiolabelled GTPγS. Plates were incubated for 45 min at 30° C. Free and bound GTPγS were separated by filtration binding using GF/B filter mats presoaked in wash buffer (50 mM Tris, 5 mM MgCl2, 50 mM NaCl, pH 7.4) using a Micro96 cell harvester (Skatron Instruments) and the filters then dried at 50° C. before counting using al450 Microbeta TRILUX (Wallac).
Data are means ±SD for experiments performed in triplicate. IC50 values of antagonists were determined using non-linear regression analysis of concentration response curves using Activity Base.

[3] = system: Male Wistar-Hanover rats; test: Pharmacodynamic effect in rat (food intake and body weight after fasting); format: in vivo; conditions: 16.7 μmol/kg i.p. amorphous nanoparticle formulation, time interval 0-4 h
Procedure: Pharmacodynamic Effect in Rat
Male Wistar-Hanover rats (Charles River, 300-350 grams) were acclimated to individually housing in conventional cages (Makrolon III) with 12:12 hour light-dark photoperiod (lights on at 06.00) in a temperature (20-22° C.) and humidity (40-60%) controlled room. R-3 lab chow (Lactanin, Vadstena, Sweden) and tap water from bottles were allowed ad libidum. At 16.00 on the day before experiments, animals were weighed & food (but not water) was removed. At 08.00 on experiment day, animals were weighed & compound (i.p. amorphous nanoparticle formulation, 5 ml/kg) or vehicle (3-10% DMA depending on compound formulation) administered. Animals were returned to their home cages & given access to a weighed amount of food. This food was then re-weighed 1, 2, 4, 6 & 24 hours later, and food consumption calculated by the difference from initial food weight.
Animals were further weighed at the 24-hr timepoint, and change in body weight over the treatment period was calculated.

T2 sequence (Q99705 whole entry): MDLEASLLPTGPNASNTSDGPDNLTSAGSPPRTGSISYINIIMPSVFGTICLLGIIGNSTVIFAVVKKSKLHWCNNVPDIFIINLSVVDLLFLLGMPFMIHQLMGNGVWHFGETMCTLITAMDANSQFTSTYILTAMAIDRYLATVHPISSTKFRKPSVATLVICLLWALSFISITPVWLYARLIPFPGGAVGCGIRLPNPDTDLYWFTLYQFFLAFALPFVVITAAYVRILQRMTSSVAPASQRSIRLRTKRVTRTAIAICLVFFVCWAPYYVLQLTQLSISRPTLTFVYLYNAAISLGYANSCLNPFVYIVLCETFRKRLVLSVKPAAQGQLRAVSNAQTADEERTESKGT
T1 sequence (Q99705 whole entry): as above

O=C(COc1cccc(Cl)c1)NC1CN(Cc2ccn(-c3ccc(C(F)(F)F)cc3)c2)C1 [Example 41, 2-(3-chlorophenoxy)-N-[1-({1-[4-(trifluoromethyl)phenyl]-1H-pyrrol-3-yl}methyl)azetidin-3-yl]acetamide]
IC50 [1]: 39 nM

O=C(CCc1cccc(Cl)c1)NC1CCN(Cc2ccn(-c3ccc(C(F)(F)F)cc3)c2)CC1 [Example 29, 3-(3-chlorophenyl)-N-[1-({1-[4-(trifluoromethyl)phenyl]-1H-pyrrol-3-yl}methyl)piperidin-4-yl]propanamide]
IC50 [2]: 66 nM | IC50 [1]: 66 nM

N#Cc1ccccc1OCC(=O)NC1CCN(Cc2ccn(-c3ccc(C(F)(F)F)cc3)c2)CC1 [Example 34, 2-(2-cyanophenoxy)-N-[1-({1-[4-(trifluoromethyl)phenyl]-1H-pyrrol-3-yl}methyl)piperidin-4-yl]acetamide]
reduced food intake [3]: 20%

COc1ccc(-n2ccc(CN3CCC(NC(=O)COc4cccc(Cl)c4)CC3)c2)cc1 [Example 3, 2-(3-chlorophenoxy)-N-({[1-(4-methoxyphenyl)-1H-pyrrol-3-yl]methyl}piperidin-4-yl)acetamide]
IC50 [2]: 45 nM | IC50 [1]: 167 nM

O=C(COc1cccc(Cl)c1)NC1CCN(Cc2ccc(-c3ccc(Cl)cc3)o2)CC1 [Example 8, 2-(3-chlorophenoxy)-N-(1-{[5-(4-chlorophenyl)-2-furyl]methyl}piperidin-4-yl)acetamide]
IC50 [2]: 111 nM | IC50 [1]: 105 nM

O=C(COc1ccc(F)c(F)c1)NC1CCN(Cc2ccn(-c3ccc(C(F)(F)F)cc3)c2)C1 (stereo not drawn) [Example 44, 2-(3,4-difluorophenoxy)-N-[1-({1-[4-(trifluoromethyl)phenyl]-1H-pyrrol-3-yl}methyl)pyrrolidin-3-yl]acetamide]
IC50 [1]: 27 nM
